The numbers were not newly measured in patent publication US8114422B2, “Methods and compositions for reducing skin damage” (The General Hospital Corporation, priority 2005, dated 2012), which cites them from elsewhere.

SMILES strings stand for the structures. pIC50: −log10 of the molar value. Like-named read-outs stand apart in the source and are kept apart here.

In data set [1] the target is PDGF receptor kinase. The settings on record: read-out: IC50 PDGF receptor (tyrosine) kinase.
The test system of data set [2] is mitochondrial membrane potential.

`N#CC(=Cc1ccc2[nH]ccc2c1)C(N)=C(C#N)C#N` [AG-370]: in data set [1], the pIC50 (in general, the IC50 on a negative log10 scale, so that one unit is a factor of ten) is 4.70.

On to `N#CC(C#N)=NNc1ccc(OC(F)(F)F)cc1` [FCCP, Carbonylcyanide-4-(trifluoromethoxy)-phenylhydrazone], for which the “depolarization of mitochondrial membrane potential” value was “complete (10 μM)” in data set [2] (treatment of cells at 10 μM) and “partial (100 nm) or” in data set [2] (treatment of cells at 100 nm).

Consider `COc1cc2ncc(-c3ccccc3)nc2cc1OC` [AG-1296, 6,7-Dimethoxy-3-phenylquinoxaline], for which the pIC50 in data set [1] was 6.00.
